Results on 2 compounds are retold here after patent US20240050434A1, “HORMAD1 THERAPEUTICS” (Royal Cancer Hospital, priority 2020, published 2024).

Common to all, as to type: cell-based
Test [1] relates to RPE1 cells expressing a doxycycline-inducible HORMAD1 construct. The test is described as follows: Incucyte time-lapse confluence/proliferation in RPE1 cells with doxycycline-inducible HORMAD1. The conditions noted are these: for cellular growth / fitness of HORMAD1 expressing RPE1 cells versus vehicle-induced cells under drug: incucyte confluence, 200 nM BOS172722 or 20 nM AZD1152-HQPA 10 days, 3 μM BAY-1816032 14 days. The protocol: Cell confluence was analysed every 6 hours for 10 days, using incucyte software. Data are from 3 biological replicates and analysed using a two-way ANOVA. […] RPE1 cells expressing a doxycycline-inducible HORMAD1 expression construct were exposed to doxycycline or vehicle (H2O) and were exposed to 20 nM of the Aurora B inhibitor, AZD1152-HQPA. Cell confluence was analysed every 6 hours for 10 days, using incucyte software. Data are from 3 biological replicates and analysed using a two-way ANOVA. […] 7-10 days post drugging, cells were fixed, stained with SRB, and colonies were counted using Cell Profiler. […] 10 days post drugging, cells were fixed, stained with SRB, and colonies were counted using Cell Profiler. […] RPE1 cells expressing a doxycycline-inducible HORMAD1 expression construct were exposed to doxycycline or vehicle (H2O) and to increasing doses of the Aurora B inhibitor, AZD1152-HQPA. 7-10 days post drugging, cells were fixed, stained with SRB, and colonies were counted using Cell Profiler. […] SUM159 cells expressing a doxycycline-inducible HORMAD1 expression construct were exposed to doxycycline or vehicle (H2O) and to increasing doses of the Aurora B inhibitor, AZD1152-HQPA. 10 days post drugging, cells were fixed, stained with SRB, and colonies were counted using Cell Profiler.
RPE1 cells were reverse transfected with BUB1 or control siRNA particles for 3 days. Cell lysates were collected, and analysed by western blotting using anti-BUB1 and anti-β-ACTIN antibodies. […] RPE1 cells expressing a doxycycline-inducible HORMAD1 expression construct were exposed to doxycycline or vehicle, and were reverse transfected with BUB1 or control siRNA particles. 5 days post transfection, cellular viability was estimated using cell titer glo reagent and surviving fractions were calculated relative to DMSO treated cells. […] Statistical significance estimated using a one-way ANOVA with Sidak's correction. C. […] Cell lysates were collected, and analysed by SDS-PAGE and western blotting using anti-HORMAD1, anti-H3 and anti-BUB1 antibodies. […] 7-10 days post doxycycline induction, cells were fixed, stained with SRB, and cellular viability was estimated using SRB absorbance readings. […] Cells were fixed, stained with SRB, and cellular viability was estimated using SRB absorbance readings. […] Cells were imaged every 4 hours, and confluence was continually measured using incucyte software. […] Patient-derived organoids models were grown in culture and cell lysates collected and analysed using SDS-PAGE and western blotting using anti-HORMAD1 and anti-β-ACTIN antibodies. […] Cellular viability was estimated using cell titer glo reagent and surviving fractions were calculated relative to DMSO treated cells. […]

The subject of test [2] is SUM159 cells expressing a doxycycline-inducible HORMAD1 construct. Put plainly: Clonogenic survival assay (SRB) in SUM159 cells with doxycycline-inducible HORMAD1. The conditions noted are these: increasing doses, 10-14 days, normalised to vehicle. The protocol: Cell confluence was analysed every 6 hours for 10 days, using incucyte software. Data are from 3 biological replicates and analysed using a two-way ANOVA. […] RPE1 cells expressing a doxycycline-inducible HORMAD1 expression construct were exposed to doxycycline or vehicle (H2O) and were exposed to 20 nM of the Aurora B inhibitor, AZD1152-HQPA. Cell confluence was analysed every 6 hours for 10 days, using incucyte software. Data are from 3 biological replicates and analysed using a two-way ANOVA. […] 7-10 days post drugging, cells were fixed, stained with SRB, and colonies were counted using Cell Profiler. […] 10 days post drugging, cells were fixed, stained with SRB, and colonies were counted using Cell Profiler. […] 7-10 days post drugging, cells were fixed, stained with SRB, and colonies were counted using Cell Profiler. […] 10 days post drugging, cells were fixed, stained with SRB, and colonies were counted using Cell Profiler.
RPE1 and SUM159 cells expressing a doxycycline-inducible HORMAD1 construct were treated with doxycycline or vehicle. […] Surviving fractions were calculated (normalised to vehicle treated cells). […] Data from 3 replicas was analysed using 2-way ANOVA. […] Surviving fractions were calculated (normalised to vehicle treated cells). Data from 4 replicas was analysed using 2-way ANOVA. […]

For test [3], the system named is RPE1 cells expressing a doxycycline-inducible HORMAD1 expression construct. The test is described as follows: Mitotic slippage by time-lapse microscopy in nocodazole-arrested RPE1 cells. Conditions: 300 nM nocodazole arrest, then 100-200 nM reversine, 50 nM BOS172722 or AZD1152-HQPA. The protocol: A. Diagram of experimental outline. Cells were exposed to doxycycline for 3 days, arrested in mitosis using 300 nM nocodazole or 100 nM Paclitaxel. Mitotic cells were filmed every 4 minutes for 1200 minutes, and the time cells remained arrested in mitosis before exiting via mitotic slippage was assessed. […] RPE1 cells expressing a doxycycline-inducible HORMAD1 cDNA expression construct were exposed to doxycycline or vehicle (H2O) for three days at which point cells were exposed to 300 nM nocodazole and filmed every 4 minutes using time-lapse microscopy. The time individual cells remained arrested in mitosis was quantified and presented as the % of cells arrested in mitosis at each time point. Data reflects a total of 125 cells from 3 biological repeats and was analysed using Mantel-Cox test. C. […] The time individual cells remained arrested in mitosis was quantified and presented as the % of cells arrested in mitosis at each time point. Data reflects a total of 125 cells from 3 biological repeats and was analysed using Mantel-Cox test. […] H1299 cells expressing two individual, doxycycline-inducible, shRNA particles targeting HORMAD1 as well as a non-targeting control were grown for three days in the presence of doxycycline at which point cell lysates were generated and analysed by SDS-PAGE and western blotting using anti-HORMAD1 and anti-β-ACTIN antibodies. […] The time individual cells remained arrested in mitosis was quantified and presented as the % of cells arrested in mitosis at each time point. Data reflects a total of 90 cells from 3 biological repeats and was analysed using Mantel-Cox test with Bonferonni correction. […] Mitotic cells were filmed every 2 minutes for 400 minutes, and the time taken before cells exited mitosis via mitotic slippage was assessed. […] The time individual cells remained arrested in mitosis was quantified and presented as the % of cells arrested in mitosis at each time point. […] The time individual cells remained arrested in mitosis was quantified and presented as the % of cells arrested in mitosis at each time point. […]

Entries after “also recorded” stand apart in the source; their conditions may differ.

With `CCN(CCO)CCCOc1ccc2c(Nc3cc(CC(=O)Nc4cccc(F)c4)[nH]n3)ncnc2c1` [AZD1152-HQPA], in test [1], the “cellular growth / fitness of HORMAD1 expressing RPE1 cells versus vehicle-induced cells under drug” value is “marked decrease in cellular growth; also recorded: decreased cellular fitness”. Besides, in test [2], the “clonogenic survival / sensitivity of HORMAD1 expressing versus HORMAD1-negative SUM159 cells” value is “reduced clonogenic survival; also recorded: increased Aurora B inhibitor sensitivity”. For the same compound, the “mitotic slippage / mitotic exit in HORMAD1 induced RPE1 cells” value in test [3] is on record as “Very similar results”.
In the case of `COc1cnccc1Nc1nc(-c2nn(Cc3c(F)cc(OCCO)cc3F)c3ccccc23)ncc1OC` [BAY-1816032], in test [1] (3 μM, 240 hours, incucyte), the “confluency reached, HORMAD1 expressing RPE1 cells” value was “around 15%” and the “confluency reached, RPE1 cells without HORMAD1 expression” value is given as around 85%. Besides, the “cellular growth / fitness of HORMAD1 expressing RPE1 cells versus vehicle-induced cells under drug” value in test [1] is reported as “decreased cellular fitness”.
